Assay results taken from US20170333532A1, “ADP'ASE-ENHANCED APYRASE THERAPY FOR WOUNDS, MICROBIAL INFECTION, SEPSIS, AND HETEROTOPIC OSSIFICATION” (APT THERAPEUTICS, INC, priority 2014, published 2017).

How the values were obtained:
[1] = test system: A. baumannii strain ATCC 19606; test: Killing of A. baumannii ATCC 19606 by colistin with Apyrase Agent, CFU count; assay type: cell-based; details: about 10^6 CFU/ml inoculum; Apyrase Agent 1 and 2 U/ml with colistin, or colistin alone at the same concentrations (0.25-2 μg/ml)
Method: Approximately 10^6 CFU/ml of A. baumannii strain ATCC 19606 is grown on solid medium culture plates in the presence of combinations of 0, 1, and 2 U/ml of Apyrase Agent and 0, 0.25, 0.5, 1, and 2 μg/ml of colistin. After incubation, the numbers of viable cells are determined by counting the colony forming units (CFU) on the plate (data provided as CFU/ml).
(§1) In this Example (and in subsequent Examples), the colistin is colistin sulfate salt, catalog number C4461 from Sigma-Aldrich (St. Louis, Mo.) and the apyrase is catalog number M0393L from New England BioLabs Inc. (Ipswich, Mass.).

[2] = test system: A. baumannii strain VBA9; test: Killing of colistin-resistant A. baumannii VBA9 by colistin with Apyrase Agent, CFU count; assay type: cell-based; details: colistin at less than 10-15 μg/ml, with Apyrase Agent 2 U/ml or alone
Method: as §1
Approximately 10^5 to 10^6 CFU/ml of the colistin-resistant A. baumannii strain VBA9 is grown in the presence of combinations of 0 and 2 U/ml of Apyrase Agent and approximately 0 to 32 μg/ml of colistin. After incubation, the numbers of viable cells are determined by counting the colony forming units (CFU) on the plate (data provided as CFU/ml). Apyrase Agent improves the efficiency of killing A. baumannii strain VBA9 by colistin. Apyrase Agent increases the effectiveness of colistin at less than 10-15 μg/ml such that less than 10 to 100 CFU/ml are detected relative to greater than 10^6 to 10^7 in the presence of colistin alone.

## colistin sulfate salt
[1]
  viable cell count: approximately 10^5 CFU/ml
[2]
  numbers of viable cells (CFU): 10^6 to 10^7 CFU/ml
